According to ChEMBL document CHEMBL4477199, “Design and synthesis of novel bicalutamide and enzalutamide derivatives as antiproliferative agents for the treatment of prostate cancer” (Eur J Med Chem, 2016):

What was measured:
[1] = tested on: CWR22R; test: Antiproliferative activity against human 22Rv1 cells after 96 hrs by propidium iodide staining based fluorescence 2D monolayer assay; assay type: functional, cell-based; conditions: 22Rv1, 96 h
[2] = tested on: DU-145; test: Antiproliferative activity against human DU145 cells after 96 hrs by propidium iodide staining based fluorescence 2D monolayer assay; assay type: functional, cell-based; conditions: DU-145, 96 h
[3] = tested on: LNCaP; test: Antiproliferative activity against human LNCAP cells after 96 hrs by propidium iodide staining based fluorescence 2D monolayer assay; assay type: functional, cell-based
[4] = tested on: VCaP; test: Antiproliferative activity against human VCaP cells after 96 hrs by propidium iodide staining based fluorescence 2D monolayer assay; assay type: functional, cell-based
[5] = Metabolic stability in human liver microsomes at 3 uM preincubated with compound followed by NADPH addition measured after 5 to 45 mins by LC-MS/MS analysis; assay type: ADME, Microsome
[6] = Apparent permeability from apical to basolateral side in human Caco2 cells at 10 uM incubated for 120 mins by LC-MS/MS analysis; conditions: Caco-2
[7] = Apparent permeability from basolateral to apical side in human Caco2 cells at 10 uM incubated for 120 mins by LC-MS/MS analysis; conditions: Caco-2
[8] = Efflux ratio of apparent permeability from basolateral to apical side over apical to basolateral side in human Caco2 cells at 10 uM incubated for 120 mins by LC-MS/MS analysis; conditions: Caco-2
[9] = tested on: HepG2; test: Cytotoxicity against human HepG2 cells assessed as reduction in cell viability after 72 hrs by MTT assay; assay type: functional, cell-based; conditions: HepG2, 72 h; for minimal effective concentration: read-out: MEC
[10] = 96 h
Description: Solubility in RPMI1640 culture medium at <30 uM incubated for 4 days by microscopic analysis

[11] = 33000 µM
Description: Solubility in 100% DMSO at 33 mM at -20 degC

[12] = biological target: T1, Androgen receptor (Rattus norvegicus) (UniProt P15207); test: (§1) Antagonist activity at rat androgen receptor fused with DNA-binding domain of GAL4 expressed in AR-UAS-bla GripTite 293 cells assessed as inhibition of R1881-induced receptor activation preincubated for 30 mins followed by R1881 addition measured after 16 to 24 hrs by betalactamase reporter gene assay; assay type: cell-based
T1 sequence (whole entry): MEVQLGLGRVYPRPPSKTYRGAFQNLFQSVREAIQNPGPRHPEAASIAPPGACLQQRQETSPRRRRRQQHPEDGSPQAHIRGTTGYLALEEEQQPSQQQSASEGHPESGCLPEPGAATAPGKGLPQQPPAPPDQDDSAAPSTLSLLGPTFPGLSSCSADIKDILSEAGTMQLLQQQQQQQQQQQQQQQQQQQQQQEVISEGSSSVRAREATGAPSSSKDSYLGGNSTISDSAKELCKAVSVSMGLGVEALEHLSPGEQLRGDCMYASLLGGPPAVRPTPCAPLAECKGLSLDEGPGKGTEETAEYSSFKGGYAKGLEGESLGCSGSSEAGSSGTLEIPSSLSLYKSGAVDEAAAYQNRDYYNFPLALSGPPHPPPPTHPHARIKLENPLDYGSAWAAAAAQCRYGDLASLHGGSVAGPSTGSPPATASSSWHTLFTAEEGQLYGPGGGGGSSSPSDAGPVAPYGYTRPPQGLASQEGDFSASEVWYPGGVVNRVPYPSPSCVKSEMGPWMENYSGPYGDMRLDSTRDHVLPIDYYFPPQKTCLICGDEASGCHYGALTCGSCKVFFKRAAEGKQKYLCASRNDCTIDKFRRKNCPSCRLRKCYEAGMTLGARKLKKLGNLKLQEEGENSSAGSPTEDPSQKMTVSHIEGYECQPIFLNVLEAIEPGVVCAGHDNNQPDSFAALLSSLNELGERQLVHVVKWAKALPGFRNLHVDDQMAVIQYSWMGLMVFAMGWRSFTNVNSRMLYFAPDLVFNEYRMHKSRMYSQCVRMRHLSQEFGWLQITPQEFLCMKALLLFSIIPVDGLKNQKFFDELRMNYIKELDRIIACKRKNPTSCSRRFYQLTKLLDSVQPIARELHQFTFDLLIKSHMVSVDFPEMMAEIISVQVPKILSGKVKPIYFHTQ

[13] = biological target: T2, Androgen receptor (Rattus norvegicus, UniProt P15207); test: as §1; assay type: cell-based
T2 sequence (P15207 whole entry): T1 sequence (whole entry)

[14] = Half life in human liver microsomes at 3 uM preincubated with compound followed by NADPH addition by LC-MS/MS analysis
[15] = tested on: HepG2; test: Cytotoxicity against human HepG2 cells assessed as reduction in cell viability at 100 uM after 72 hrs by MTT assay relative to control; assay type: functional
[16] = in vitro; conditions: human
[17] = tested on: CWR22R; test: Potency index, ratio of bicalutamide IC50 to compound IC50 for human 22Rv1 cells; assay type: functional
[18] = tested on: DU-145; test: Potency index, ratio of bicalutamide IC50 to compound IC50 for human DU145 cells; assay type: functional
[19] = tested on: LNCaP; test: Potency index, ratio of bicalutamide IC50 to compound IC50 for human LNCAP cells; assay type: functional
[20] = tested on: VCaP; test: Potency index, ratio of bicalutamide IC50 to compound IC50 for human VCaP cells; assay type: functional
[21] = tested on: CWR22R; test: Potency index, ratio of (R)-bicalutamide IC50 to compound IC50 for human 22Rv1 cells; assay type: functional
[22] = tested on: DU-145; test: Potency index, ratio of (R)-bicalutamide IC50 to compound IC50 for human DU145 cells; assay type: functional
[23] = tested on: LNCaP; test: Potency index, ratio of (R)-bicalutamide IC50 to compound IC50 for human LNCAP cells; assay type: functional
[24] = tested on: VCaP; test: Potency index, ratio of (R)-bicalutamide IC50 to compound IC50 for human VCaP cells; assay type: functional
[25] = biological target: T1, Androgen receptor (Rattus norvegicus); test: as §1, with “activation at 1 uM” for “activation”, “assay relative to control” for “assay”; assay type: cell-based
[26] = tested on: LNCaP; test: Potency index, ratio of enzalutamide IC50 to compound IC50 for human LNCAP cells; assay type: functional
[27] = tested on: LNCaP; test: Antiproliferative activity against human LNCAP cells assessed as relative inhibition after 96 hrs by propidium iodide staining based fluorescence 2D monolayer assay; assay type: functional, cell-based
[28] = tested on: DU-145; test: Antiproliferative activity against human DU145 cells assessed as relative inhibition after 96 hrs by propidium iodide staining based fluorescence 2D monolayer assay; assay type: functional, cell-based; conditions: DU-145, 96 h
[29] = tested on: CWR22R; test: Antiproliferative activity against human 22Rv1 cells assessed as relative inhibition after 96 hrs by propidium iodide staining based fluorescence 2D monolayer assay; assay type: functional, cell-based; conditions: 22Rv1, 96 h
[30] = tested on: VCaP; test: Antiproliferative activity against human VCaP cells assessed as relative inhibition after 96 hrs by propidium iodide staining based fluorescence 2D monolayer assay; assay type: functional, cell-based

Row | SMILES | IC50 [1] [µM] | IC50 [2] [µM] | IC50 [3] [µM] | IC50 [4] [µM] | Papp A→B at 2 h, 10 µM [6] [×10⁻⁶ cm/s] | Papp B→A at 2 h, 10 µM [7] [×10⁻⁶ cm/s] | efflux ratio at 2 h, 10 µM [8] | AC50 [9] [µM] | minimal effective concentration [9] [µM] | solubility [10] | solubility [11] | inhibition [12] | IC50 [13] [nM] | cell viability reduction [15] [%] | also measured
1 | CC(O)(COc1ccc(C(F)(F)F)cc1)C(=O)Nc1ccc(C#N)c(C(F)(F)F)c1 (centres undefined) | 6.91 | 16.3 | 6.45 | 9.65 | 5.09 | 4.8 | 0.943 | 23.9 | 11.3 | Soluble | Soluble |  |  |  | Stability [5]: Stable
2 | CC(O)(CSc1ccccc1C(F)(F)F)C(=O)Nc1ccc([N+](=O)[O-])c(C(F)(F)F)c1 (centres undefined) | 4.6 | 7.57 | 4.78 | 4.45 | 3.44 | 2.9 | 0.843 | 2.73 | 1.71 | Soluble | Soluble | Dose-dependent effect | 280 | 98 | half-life at 3 µM ([14]; microsomes): 3.39 min; microsomal CLint at 3 µM ([16]; microsomes): 409 µL/min/mg
3 | C[C@](O)(CS(=O)(=O)c1ccc(C(F)(F)F)cc1)C(=O)Nc1ccc(C#N)c(C(F)(F)F)c1 | 20.2 | 26.8 | 17.5 | 31.4 |  |  |  |  |  | Soluble | Soluble | Dose-dependent effect | 775 |  | Ratio IC50 [17]: <=2; Ratio IC50 [18]: <=2; Ratio IC50 [19]: <=2; Ratio IC50 [20]: <=2; Ratio IC50 [21]: 2; Ratio IC50 [22]: 2; Ratio IC50 [23]: 2; Ratio IC50 [24]: 2
4 | C[C@](O)(COc1ccc(C#N)cc1)C(=O)Nc1ccc(C#N)c(C(F)(F)F)c1 [ENOBOSARM] | 24.8 | 44.6 |  | 24.5 | 31.5 | 26.7 | 0.848 | 32.8 | 21.8 |  |  |  | 36.4 | 79 | Stability [5]: Stable
5 | CC(O)(COc1ccc(C#N)cc1C(F)(F)F)C(=O)Nc1ccc([N+](=O)[O-])c(C(F)(F)F)c1 (centres undefined) | 5.55 | 7.65 | 5.69 | 8.38 |  |  |  | 20.2 | 10.6 |  |  | Dose-dependent effect | 72.2 | 98 | half-life at 3 µM ([14]; liver microsomes): 534 min; microsomal CLint at 3 µM ([16]; liver microsomes): 2.59 µL/min/mg
6 | C[C@](O)(CS(=O)(=O)c1ccc(OC(F)(F)F)cc1)C(=O)Nc1ccc(C#N)c(C(F)(F)F)c1 | 18.8 | 31.6 | 18.9 | 31.2 |  |  |  |  |  | Soluble | Soluble | Dose-dependent effect | 777 |  | inhibition [25]: 53 to 69%
7 | CC(O)(COc1ccc(C#N)c(F)c1)C(=O)Nc1ccc([N+](=O)[O-])c(C(F)(F)F)c1 (centres undefined) | 11.8 | 16.4 | 7.71 | 12.4 |  |  |  |  |  | Soluble | Soluble | Dose-dependent effect | 49.2 |  | inhibition [25]: 65%
8 | CC(O)(CS(=O)(=O)c1cccc(C(F)(F)F)c1)C(=O)Nc1ccc([N+](=O)[O-])c(C(F)(F)F)c1 (centres undefined) | 16.1 | 31.6 | 16.2 | 30.8 |  |  |  |  |  | Soluble | Soluble | Dose-dependent effect | 1070 |  | Ratio IC50 [17]: <=2; Ratio IC50 [18]: <=2; Ratio IC50 [19]: <=2; Ratio IC50 [20]: <=2
9 | CC1(C)C(=O)N(c2ccc(C(F)(F)F)cc2)C(=O)N1c1ccc([N+](=O)[O-])c(C(F)(F)F)c1 | ≥ 100 | ≥ 100 | 2.12 | 73.1 |  |  |  |  |  | Soluble | Soluble | Dose-dependent effect | 80.3 |  | IC70 [1]: > 100 µM; IC70 [2]: > 100 µM; IC70 [3]: 9.64 µM; IC70 [4]: > 100 µM; Ratio IC50 [26]: <=5; IC50 [27]: 1.64 µM; IC70 [27]: 7.89 µM; IC50 [28]: > 100 µM; IC70 [28]: > 100 µM; IC50 [29]: 41.6 µM; IC70 [29]: > 100 µM; IC50 [30]: 0.053 µM; IC70 [30]: 7.76 µM
10 | CC(O)(CS(=O)(=O)c1ccccc1C(F)(F)F)C(=O)Nc1ccc([N+](=O)[O-])c(C(F)(F)F)c1 (centres undefined) | 18.6 | 37.5 | 25.7 | 27.6 | 13.3 | 17.2 | 1.29 | 32.6 | 22.7 | Soluble | Soluble | Dose-dependent effect | 811 |  | Stability [5]: Stable
11 | C[C@](O)(CS(=O)(=O)c1ccc(F)cc1)C(=O)Nc1ccc(C#N)c(C(F)(F)F)c1 [(R)-BICALUTAMIDE] | 46.2 to 46.3 | 45.4 | 45.2 | 51.6 |  |  |  |  |  |  |  |  |  | 77 | IC70 [1]: 58.7 µM; IC70 [2]: 56.6 µM; IC70 [3]: 57.7 µM; IC70 [4]: 83.4 µM; IC50 [27]: 47 µM; IC70 [27]: 59.3 µM; IC50 [28]: 41.2 µM; IC70 [28]: 52.6 µM; IC50 [29]: 44.6 µM; IC70 [29]: 57.1 µM; IC50 [30]: 39.8 µM; IC70 [30]: 52.1 µM; microsomal CLint at 3 µM ([16]; liver microsomes): 6.48 µL/min/mg
